Measurements published in patent publication US8030453B2, “Methods of making an antibody that binds a chemerin polypeptide” (Euroscreen S.A., priority 2001, dated 2011).
Peptide text beside a SMILES is read from it.

T1: human ChemerinR (ChemR23) expressed in CHO-K1 cells (Homo sapiens, UniProt Q99788)
T1 construct: This fragment was subcloned into the pcDNA3 (Invitrogen) vector; expressed in transfected cells; host or cells: CHO-K1 (co-expressing mitochondrial apoaequorin and Galpha16)
T1 sequence (Q99788 3-373): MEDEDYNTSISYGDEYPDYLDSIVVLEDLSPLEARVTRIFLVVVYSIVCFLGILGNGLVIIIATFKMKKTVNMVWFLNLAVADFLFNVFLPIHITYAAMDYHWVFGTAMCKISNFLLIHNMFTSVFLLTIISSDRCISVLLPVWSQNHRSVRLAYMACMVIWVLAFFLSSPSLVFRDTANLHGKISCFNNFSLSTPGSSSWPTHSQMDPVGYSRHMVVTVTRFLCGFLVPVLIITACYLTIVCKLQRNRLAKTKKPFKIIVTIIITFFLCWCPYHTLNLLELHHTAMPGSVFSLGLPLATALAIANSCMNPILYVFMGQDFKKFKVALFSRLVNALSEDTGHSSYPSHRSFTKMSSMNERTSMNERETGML


biological target: T1, human ChemerinR (ChemR23) expressed in CHO-K1 cells; assay: aequorin-based intracellular Ca2+ release assay; type: cell-based; conditions: not given
Protocol: Briefly, ChemerinR-expressing clones are transfected to coexpress mitochondrial apoaequorin and Gα16. Cells are incubated with 5 μM Coelenterazine H (Molecular Probes) for 4 hours at room temperature, washed in DMEM-F12 culture medium and resuspended at a concentration of 0.5×10^6 cells/ml. Cells are then mixed with test agonist peptides and light emission by the aequorin is recorded with a luminometer for 30 sec. Results are expressed as Relative Light Units (RLU). Controls include assays using membranes isolated from cells not expressing ChemerinR (mock-transfected), in order to exclude possible non-specific effects of the candidate compound.
ChemerinR-expres sing clones have been obtained by transfection of CHO-K1 cells to coexpressing mitochondrial apoaequorin and Gα16, limiting dilution and selection by northern blotting. Positive clones were used for screening with human ovarian cancer ascites extracts prepared as described above. […] Briefly, cells were collected from plates in PBS containing 5 mM EDTA, pelleted and resuspended at 5×10^6 cells/ml in DMEM-F12 medium. Cells were incubated with 5 μM Coelenterazine H (Molecular Probes) for 4 hours at room temperature. Cells were then washed in DMEM-F12 medium and resuspended at a concentration of 0.5×10^6 cells/ml. Cells were then mixed with test agonist peptides or plates containing tissue extracts and the light emission was recorded for 30 sec using a Microlumat luminometer (Perkin Elmer). Results are expressed as Relative Light Units (RLU).

| Molecule | EC50 [µM] |
| --- | --- |
| C[C@H](NC(=O)[C@H](Cc1ccccc1)NC(=O)[C@H](CCC(N)=O)NC(=O)CNC(=O)[C@@H]1CCCN1)C(=O)N[C@@H](Cc1ccccc1)C(=O)N[C@@H](CO)C(=O)O [Human Chemerin-7, PGQFAFS] (H-PGQFAFS-OH) | 220 ± 100 |
| C[C@H](NC(=O)[C@H](Cc1ccccc1)NC(=O)[C@H](CCC(N)=O)NC(=O)CNC(=O)[C@@H]1CCCN1C(=O)[C@@H](N)Cc1ccccc1)C(=O)N[C@@H](Cc1ccccc1)C(=O)N[C@@H](CO)C(=O)O [Human Chemerin-8] (H-FPGQFAFS-OH; N-terminus and C-terminus assumed) | 2 ± 1 |
| C[C@H](NC(=O)[C@H](Cc1ccccc1)NC(=O)[C@H](CCC(N)=O)NC(=O)CNC(=O)[C@@H]1CCCN1C(=O)[C@H](Cc1ccccc1)NC(=O)[C@H](Cc1ccc(O)cc1)NC(=O)[C@@H](N)Cc1ccccc1)C(=O)N[C@@H](Cc1ccccc1)C(=O)N[C@@H](CO)C(=O)O [Human Chemerin-10] (H-FYFPGQFAFS-OH; N-terminus and C-terminus assumed) | 0.0082 ± 0.002 |
| C[C@H](NC(=O)[C@H](Cc1ccccc1)NC(=O)[C@H](CCC(N)=O)NC(=O)CNC(=O)[C@@H]1CCCN1C(=O)[C@H](Cc1ccccc1)NC(=O)[C@H](Cc1ccc(O)cc1)NC(=O)[C@H](Cc1ccccc1)NC(=O)[C@H](CO)NC(=O)[C@@H](N)Cc1c[nH]cn1)C(=O)N[C@@H](Cc1ccccc1)C(=O)N[C@@H](CO)C(=O)O [Human Chemerin-12] (H-HSFYFPGQFAFS-OH; N-terminus and C-terminus assumed) | 0.0122 ± 0.0034 |
| C[C@H](NC(=O)[C@H](Cc1ccccc1)NC(=O)[C@H](CCC(N)=O)NC(=O)CNC(=O)[C@@H]1CCCN1C(=O)[C@H](Cc1ccccc1)NC(=O)[C@H](Cc1ccc(O)cc1)NC(=O)[C@H](Cc1ccccc1)NC(=O)[C@H](CO)NC(=O)[C@H](Cc1c[nH]cn1)NC(=O)[C@@H]1CCCN1)C(=O)N[C@@H](Cc1ccccc1)C(=O)N[C@@H](CO)C(=O)O [Human Chemerin-13] (H-PHSFYFPGQFAFS-OH) | 0.014 |
| C[C@H](NC(=O)[C@H](Cc1ccccc1)NC(=O)[C@H](CCC(N)=O)NC(=O)CNC(=O)[C@@H]1CCCN1C(=O)[C@H](Cc1ccccc1)NC(=O)[C@H](Cc1ccc(O)cc1)NC(=O)[C@H](Cc1ccccc1)NC(=O)[C@H](CO)NC(=O)[C@H](Cc1c[nH]cn1)NC(=O)[C@@H]1CCCN1C(=O)[C@H](CC(=O)O)NC(=O)[C@H](CCC(=O)O)NC(=O)CNC(=O)[C@H](C)NC(=O)[C@H](CCCNC(=N)N)NC(=O)[C@@H](N)CCC(N)=O)C(=O)N[C@@H](Cc1ccccc1)C(=O)N[C@@H](CO)C(=O)O [Human Chemerin-19] (H-QRAGEDPHSFYFPGQFAFS-OH) | 0.0167 ± 0.0032 |
| C[C@H](N)C(=O)N[C@@H](Cc1ccccc1)C(=O)N1CCC[C@H]1C(=O)NCC(=O)N[C@@H](CCC(N)=O)C(=O)N[C@@H](Cc1ccccc1)C(=O)N[C@@H](C)C(=O)N[C@@H](Cc1ccccc1)C(=O)N[C@@H](CO)C(=O)O [Human [Ala-1] Chemerin-9] (H-AFPGQFAFS-OH; N-terminus and C-terminus assumed) | 0.496 ± 0.08 |
| C[C@H](NC(=O)[C@H](Cc1ccccc1)NC(=O)[C@H](CCC(N)=O)NC(=O)CNC(=O)[C@@H]1CCCN1C(=O)[C@H](Cc1ccccc1)NC(=O)[C@H](Cc1ccc(O)cc1)NC(=O)[C@H](Cc1ccccc1)NC(=O)[C@H](CO)NC(=O)[C@H](Cc1c[nH]cn1)NC(=O)[C@@H]1CCCN1C(=O)[C@H](CC(=O)O)NC(=O)[C@H](CCC(=O)O)NC(=O)CNC(=O)[C@H](C)NC(=O)[C@H](CCCNC(=N)N)NC(=O)[C@@H](N)CCC(N)=O)C(=O)N[C@@H](Cc1ccccc1)C(=O)N[C@@H](CO)C(=O)N[C@@H](CCCCN)C(=O)O [Human [Lys20] Chemerin-19] (H-QRAGEDPHSFYFPGQFAFSK-OH) | 170 |
| C[C@H](NC(=O)[C@H](CCCNC(=N)N)NC(=O)[C@@H](N)CCC(N)=O)C(=O)NCC(=O)N[C@@H](CCC(=O)O)C(=O)N[C@@H](CC(=O)O)C(=O)N1CCC[C@H]1C(=O)N[C@@H](Cc1c[nH]cn1)C(=O)N[C@@H](CO)C(=O)N[C@@H](Cc1ccccc1)C(=O)N[C@@H](Cc1ccc(O)cc1)C(=O)N[C@@H](Cc1ccccc1)C(=O)N1CCC[C@H]1C(=O)NCC(=O)N[C@@H](CCC(N)=O)C(=O)N[C@@H](Cc1ccccc1)C(=O)O [Human [ΔAla17Phe18Ser19] Chemerin-19] (H-QRAGEDPHSFYFPGQF-OH) | 130 ± 10 |
| C[C@H](NC(=O)[C@H](Cc1ccccc1)NC(=O)[C@H](CCC(N)=O)NC(=O)CNC(=O)[C@@H]1CCCN1C(=O)[C@H](Cc1ccccc1)NC(=O)[C@H](Cc1ccc(O)cc1)NC(=O)[C@H](Cc1ccccc1)NC(=O)[C@H](CO)NC(=O)[C@H](Cc1c[nH]cn1)NC(=O)[C@@H]1CCCN1C(=O)[C@H](CC(=O)O)NC(=O)[C@H](CCC(=O)O)NC(=O)CNC(=O)[C@H](C)NC(=O)[C@H](CCCNC(=N)N)NC(=O)[C@@H](N)CCC(N)=O)C(=O)O [Human [ΔPhe18Ser19] Chemerin-19] (H-QRAGEDPHSFYFPGQFA-OH; N-terminus and C-terminus assumed) | 220 |
| C[C@H](NC(=O)[C@H](Cc1ccccc1)NC(=O)[C@H](CCC(N)=O)NC(=O)CNC(=O)[C@@H]1CCCN1C(=O)[C@H](Cc1ccccc1)NC(=O)[C@H](Cc1ccc(O)cc1)NC(=O)[C@H](Cc1ccccc1)NC(=O)[C@H](CO)NC(=O)[C@H](Cc1c[nH]cn1)NC(=O)[C@@H]1CCCN1C(=O)[C@H](CC(=O)O)NC(=O)[C@H](CCC(=O)O)NC(=O)CNC(=O)[C@H](C)NC(=O)[C@H](CCCNC(=N)N)NC(=O)[C@@H](N)CCC(N)=O)C(=O)N[C@@H](Cc1ccccc1)C(=O)O [Human [ΔSer19] Chemerin-19] (H-QRAGEDPHSFYFPGQFAF-OH; N-terminus and C-terminus assumed) | 0.097 ± 0.013 |

same assay, conditions: CHO cells expressing ChemerinR, aequorin assay; read-out: EC50 for activation of ChemerinR

| Molecule | EC50 [µM] |
| --- | --- |
| truncated PreprocHEMERIN: 157 amino acid truncated Preprochemerin polypeptide (SEQ ID NO: 73, FIG. 16) (protein, listed as Homo sapiens) MRRLLIPLALWLGAVGVGVAELTEAQRRGLQVALEEFHKHPPVQWAFQETSVESAVDTPFPAGIFVRLEFKLQQTSCRKRDWKKPECKVRPNGRKRKCLACIKLGSEDKVLGRLVHCPIETQVLREAEEHQETQCLRVQRAGEDPHSFYFPGQFAFS | 0.00427 |

same assay, conditions: result in words

| Molecule | Mean EC50 |
| --- | --- |
| QRAGEDPHSFYFPGQ | inactif |

same assay, conditions: truncated Chemerin peptides, values given in μM; read-out: Mean EC50

| Molecule | EC50 [µM] |
| --- | --- |
| C[C@H](NC(=O)[C@H](C)NC(=O)[C@H](CCC(N)=O)NC(=O)CNC(=O)[C@@H]1CCCN1C(=O)[C@H](Cc1ccccc1)NC(=O)[C@@H](N)Cc1ccc(O)cc1)C(=O)N[C@@H](Cc1ccccc1)C(=O)N[C@@H](CO)C(=O)O [Human [Ala-6] Chemerin-9] (H-YFPGQAAFS-OH; N-terminus and C-terminus assumed) | 5 ± 1 |
| C[C@H](NC(=O)[C@H](C)NC(=O)[C@H](Cc1ccccc1)NC(=O)[C@H](CCC(N)=O)NC(=O)CNC(=O)[C@@H]1CCCN1C(=O)[C@H](Cc1ccccc1)NC(=O)[C@@H](N)Cc1ccc(O)cc1)C(=O)N[C@@H](CO)C(=O)O [Human [Ala-8] Chemerin-9] (H-YFPGQFAAS-OH; N-terminus and C-terminus assumed) | 38 ± 7 |
| CC(C)C[C@H](NC(=O)[C@H](C)NC(=O)[C@H](CCCCN)NC(=O)[C@H](CO)NC(=O)[C@H](Cc1ccccc1)NC(=O)[C@H](C)NC(=O)[C@H](Cc1ccccc1)NC(=O)[C@H](CCC(N)=O)NC(=O)CNC(=O)[C@@H]1CCCN1C(=O)[C@H](Cc1ccccc1)NC(=O)[C@H](Cc1ccc(O)cc1)NC(=O)[C@H](Cc1ccccc1)NC(=O)[C@H](CO)NC(=O)[C@H](Cc1c[nH]cn1)NC(=O)[C@@H]1CCCN1C(=O)[C@H](CC(=O)O)NC(=O)[C@H](CCC(=O)O)NC(=O)CNC(=O)[C@H](C)NC(=O)[C@H](CCCNC(=N)N)NC(=O)[C@@H](N)CCC(N)=O)C(=O)N1CCC[C@H]1C(=O)N[C@@H](CCCNC(=N)N)C(=O)N[C@@H](CO)C(=O)O [Human prochemerin-25] (H-QRAGEDPHSFYFPGQFAFSKALPRS-OH; N-terminus and C-terminus assumed) | 160 ± 21 |

same assay, conditions: truncated Chemerin peptides, values in nM; read-out: Mean EC50

| Molecule | EC50 [µM] |
| --- | --- |
| C[C@H](NC(=O)[C@H](Cc1ccccc1)NC(=O)[C@H](CCC(N)=O)NC(=O)CNC(=O)[C@@H]1CCCN1C(=O)[C@H](C)NC(=O)[C@@H](N)Cc1ccc(O)cc1)C(=O)N[C@@H](Cc1ccccc1)C(=O)N[C@@H](CO)C(=O)O [Human [Ala-2] Chemerin-9] (H-YAPGQFAFS-OH; N-terminus and C-terminus assumed) | 0.155 ± 0.0416 |
